Like-named read-outs stand apart in the source and are kept apart here.
Legend:
MRSA = assay: Growth of microorganisms on polyurethane specimens; type: cell-based, Staphylococcus aureus; parameters: key: −: complete inhibition; +: slight growth (growth observed at dilutions between 10^−1-10^−3); ++: moderate growth (growth observed at dilutions between 10^−4-10^−6); +++: high growth (growth at dilutions between 10^−7-10^−12); conditions: 24 h incubation in bacteria growth medium
Text: (§1) Extensive microbiology work has also been completed. […] Key: −complete inhibition; +slight growth (growth observed at dilutions between 10^−1-10^−3); ++ moderate growth (growth observed at dilutions between 10^−4-10^−6); +++ high growth (growth at dilutions between 10^−7-10^−12).

E. coli = assay: Growth of microorganisms on polyurethane specimens; type: cell-based, Escherichia coli; parameters: key: −: complete inhibition; +: slight growth (growth observed at dilutions between 10^−1-10^−3); ++: moderate growth (growth observed at dilutions between 10^−4-10^−6); +++: high growth (growth at dilutions between 10^−7-10^−12); conditions: 24 h incubation
Text: as §1

P aeruginosa = assay: Growth of microorganisms on polyurethane specimens; type: cell-based, Pseudomonas aeruginosa; parameters: key: −: complete inhibition; +: slight growth (growth observed at dilutions between 10^−1-10^−3); ++: moderate growth (growth observed at dilutions between 10^−4-10^−6); +++: high growth (growth at dilutions between 10^−7-10^−12); conditions: 24 h incubation
Text: as §1

K. pneumoniae = assay: Growth of microorganisms on polyurethane specimens; type: cell-based, Klebsiella pneumoniae; parameters: key: −: complete inhibition; +: slight growth (growth observed at dilutions between 10^−1-10^−3); ++: moderate growth (growth observed at dilutions between 10^−4-10^−6); +++: high growth (growth at dilutions between 10^−7-10^−12); conditions: 24 h incubation
Text: as §1

S. mutans [1] = assay: Reported MIC for S. mutans; type: cell-based; conditions: Streptococcus mutans, conversion of the reported 0.125%
S. mutans [2] = conditions: reported; cited from earlier work
[3] = composite resins supplemented with pulverised CHX diacetate; cited from earlier work
[4] = Elution of CHX from CHX-HMP functionalised materials (UV spectrophotometry); type: physicochemical
Procedure: 200 mL of the colloidal suspension was prepared using freshly-prepared reagents (to prevent hydrolysis of the HMP). The specimen was immersed in the rapidly stirred colloid for 30 s, then removed and immersed in deionised water for 10 s to rinse, and then blotted to remove excess liquid and allowed to dry in air.
8 specimens of each material coated with CHX-HMP-5 and CHX-HMP-0.5 nanoparticles were placed in individually labelled cuvettes suitable for ultraviolet spectrophotometry. Deionised water was added to the cuvettes and they were sealed tightly using cuvette lids. These were agitated on an orbital shaker rotating at 150 rpm. The cuvettes were kept sealed and were sampled for chlorhexidine concentration at intervals over a 60-90 day period. Control sets were prepared where the specimens were immersed in deionised water and where they were immersed in a 25 μM CHX solution, which is the concentration of aqueous CHX residual in the CHX-HMP-5 colloidal suspension.

[5] = tested on: Methicillin-resistant Staphylococcus aureus (MRSA; NCTC13142); assay: Minimum inhibitory concentration, planktonic bacteria; type: cell-based; conditions: 16 h, 37° C., OD 620 nm, listed as 25 μM chlorhexidine
Procedure: (§2) Methicillin-resistant Staphylococcus aureus (MRSA; NCTC13142) was cultured in Mueller-Hinton media. Pseudomonas aeruginosa NCIMB 8626 (ATCC 9027) was cultured in nutrient broth (NB) or nutrient agar (NA). All cultures were incubated at 37° C. aerobically throughout the study.
(§3) Cultures were incubated for 16 h at 37° C. in aerobic conditions, optical density (CD) readings were measured at 620 nm (A620) using a standard microtitre plate reader (SpectroStar Nano; BMG Labtech).

[6] = tested on: Pseudomonas aeruginosa NCIMB 8626 (ATCC 9027); assay: as above; type: cell-based; conditions: P. aeruginosa, 16 h; value for CHX-HMP-5 is minimum tested
Procedure: as §2, §3

MRSA biofilm = assay: Static biofilm model (crystal violet); type: cell-based, Staphylococcus aureus; conditions: MRSA 48 h static biofilm, 2 h treatment; word qualifies 'disruption'
Procedure: (§4) Bacterial strains were initially grown for 16 h and these stationary phase cultures were harvested by centrifugation, and adjusted to OD650=0.1. Biofilms were grown in 50 μL appropriate media at 37° C. for 48 h, aerobically then the media was removed and discarded. Loosely adherent bacteria were removed by washing the biofilms twice with 100 μl PBS. Chlorhexidine or chlorhexidine nanoparticles diluted in PBS were added to the biofilms using a doubling dilution as described above (0-25 μM). The plates were incubated for 2 h at 37° C.; to estimate biomass, unattached cells were gently aspirated and discarded, and adherent cells were washed twice with PBS and stained with crystal violet (0.25% w/v) for 10 min; following a further two washes with PBS, cell-bound crystal violet was re-solubilized with 7% acetic acid, and absorbance measured at 595 nm (A595).

P. aeruginosa biofilm = assay: Static biofilm model (crystal violet); type: cell-based, Pseudomonas aeruginosa; conditions: P. aeruginosa 48 h static biofilm, 2 h treatment; word qualifies 'disruption'
Procedure: as §4

MRSA bacteria = assay: Microbiology on EVA samples functionalised with CHX nanoparticles; type: cell-based, Staphylococcus aureus; conditions: EVA specimens, 18 h incubation in 1 mL growth medium
Procedure: EVA specimens were functionalised by 30 s immersion in a colloidal suspension of CHX-HMP-5 in water followed by 10 s immersion in deionised water (“low concentration”) or without subsequent immersion in deionised water (“high concentration”). These samples were then exposed to cultures of MRSA bacteria. They were then immersed in 1 mL, growth medium and incubated for 18 h. According to the release experiments in this time the EVA specimen should release around 6 μM per m^2 material. Surface area of the specimen was 0.000182 m^2 so the expected total release should be […] CHX into 1 mL giving a resultant concentration of 1.1 μM CHX.

[7] = Elution of CHX from functionalised borosilicate glass surfaces (UV spectrophotometry); type: physicochemical; conditions: coated glass coverslips in deionised water, 14-day period
Procedure: Chlorhexidine based salts were prepared by combining, at room temperature and under rapid stirring, 100 mL chlorhexidine (as the digluconate salt in aqueous solution at a concentration of 10 mM) and 100 mL of one of a range of anions in aqueous solution, also at an initial concentration of 10 mM, to effect final total concentrations of 5 mM of each. The precipitate was then allowed to adhere on borosilicate glass coverslips. Coverslips (Agar Scientific, Stansted, UK) were cleaned by 10 minutes ultrasonication in acetone followed by 10 minutes ultrasonication in industrial methylated spirits and allowed to air dry. They were immersed in the 200 mL suspension described above while it was rapidly stirred using a magnetic stirring plate. Coverslips were immersed for 30 seconds, removed, immersed in deionised water for 10 seconds to rinse, blotted to remove excess liquid and allowed to dry in air. The elution of soluble CHX from the functionalised glass surfaces was examined using ultraviolet spectrophotometry. 8 specimens of each type were placed in individually labelled cuvettes suitable for ultraviolet spectrophotometry. 2.5 mL deionised water was added to the cuvettes and they were sealed tightly using cuvette lids. These were agitated on an orbital shaker rotating at 150 rpm. […]

[8] = result in words, 'Little or no' continues 'significant release'

Question: For `N=C(NCCCCCCNC(=N)NC(=N)Nc1ccc(Cl)cc1)NC(=N)Nc1ccc(Cl)cc1` [80 μM CHX, chlorhexidine], which “growth of microorganisms on polyurethane specimens” value (shortened to “growth of microorganisms”) (MRSA) is on record?
Answer: Its value is “++”.

Question: And the “growth of microorganisms” value (E. coli)?
Answer: Its value is “++”.

Question: What about the “growth of microorganisms” value (P aeruginosa) of the same compound?
Answer: The value was “++”.

Question: What about the “growth of microorganisms” value (K. pneumoniae) of the same compound?
Answer: Its value is “++”.

Question: What does the source list for `N=C(NCCCCCCNC(=N)NC(=N)Nc1ccc(Cl)cc1)NC(=N)Nc1ccc(Cl)cc1` [CHX digluconate]?
Answer: MIC (S. mutans [1]): ~1400 µM; MIC (S. mutans [2]): 0.125 % by mass

Question: For `N=C(NCCCCCCNC(=N)NC(=N)Nc1ccc(Cl)cc1)NC(=N)Nc1ccc(Cl)cc1` [CHX diacetate], which “time to plateau of CHX release” value [3] is on record?
Answer: Its value is “around 7 days”.

Question: For `N=C(NCCCCCCNC(=N)NC(=N)Nc1ccc(Cl)cc1)NC(=N)Nc1ccc(Cl)cc1` [Comparative Example 5, chlorhexidine], which “CHX Release Period” value ([4]; functionalised material in deionised water, 60-90 day period) is on record?
Answer: Its value is over 60 days.

Question: For `N=C(NCCCCCCNC(=N)NC(=N)Nc1ccc(Cl)cc1)NC(=N)Nc1ccc(Cl)cc1` [Comparative Example 6, chlorhexidine], which “CHX Release Period” value [4, 8] is on record?
Answer: Its value is “No release”.

Question: With `N=C(NCCCCCCNC(=N)NC(=N)Nc1ccc(Cl)cc1)NC(=N)Nc1ccc(Cl)cc1` [Comparative Example 7, chlorhexidine] as the compound, how does the “CHX Release Period” value [4, 8] read?
Answer: Its value is “Little or no”.

Question: What does the source list for `N=C(NCCCCCCNC(=N)NC(=N)Nc1ccc(Cl)cc1)NC(=N)Nc1ccc(Cl)cc1` [compound 8, chlorhexidine]?
Answer: MIC, soluble CHX conc [5]: not efficacious; MIC, soluble CHX conc [6]: P.a.: (25 μM); Effect on biofilm (MRSA biofilm): MRSA: slight; Effect on biofilm (P. aeruginosa biofilm): P.a.: slight; recovery of MRSA / efficacy against MRSA (MRSA bacteria): not efficacious

Question: For `N=C(NCCCCCCNC(=N)NC(=N)Nc1ccc(Cl)cc1)NC(=N)Nc1ccc(Cl)cc1` [compound 2, chlorhexidine], which “CHX Release Period” value [7] is on record?
Answer: The value was 48 to 72 h.

Question: Which “CHX Release Period” value [4, 8] does the source give for `N=C(NCCCCCCNC(=N)NC(=N)Nc1ccc(Cl)cc1)NC(=N)Nc1ccc(Cl)cc1` [Comparative Example 4, chlorhexidine] here?
Answer: The value was “No release”.

Source: patent US9717248B2, “Antibacterial micro- and nanoparticles comprising a chlorhexidine salt, method of production and uses thereof” (The University of Bristol, priority 2013, dated 2017)
